Patent US12121526B2, “Targeting NCCA-ATP channel for organ protection following ischemic episode” (University of Maryland, Baltimore, priority 2007, dated 2024)
“Also recorded” adds a separate entry of the source. Counter-ions that a name gives are not always drawn. Like-named read-outs stand apart in the source and are kept apart here.

Assays:
[1] = test system: permanent middle cerebral artery occlusion; conditions: cited from earlier work
[2] = test system: temporary middle cerebral artery occlusion; conditions: cited from earlier work
NCCa-ATP channel [3] = target: T1, NCCa-ATP channel (Rattus norvegicus, UniProt Q09429); conditions: cited from earlier work
T1 construct: endogenous in cells; host or cells: freshly isolated native reactive astrocytes (NRA/R1 astrocytes) from the hypoxic inner zone of the gliotic capsule in brain
T1 sequence (Q09429 whole entry): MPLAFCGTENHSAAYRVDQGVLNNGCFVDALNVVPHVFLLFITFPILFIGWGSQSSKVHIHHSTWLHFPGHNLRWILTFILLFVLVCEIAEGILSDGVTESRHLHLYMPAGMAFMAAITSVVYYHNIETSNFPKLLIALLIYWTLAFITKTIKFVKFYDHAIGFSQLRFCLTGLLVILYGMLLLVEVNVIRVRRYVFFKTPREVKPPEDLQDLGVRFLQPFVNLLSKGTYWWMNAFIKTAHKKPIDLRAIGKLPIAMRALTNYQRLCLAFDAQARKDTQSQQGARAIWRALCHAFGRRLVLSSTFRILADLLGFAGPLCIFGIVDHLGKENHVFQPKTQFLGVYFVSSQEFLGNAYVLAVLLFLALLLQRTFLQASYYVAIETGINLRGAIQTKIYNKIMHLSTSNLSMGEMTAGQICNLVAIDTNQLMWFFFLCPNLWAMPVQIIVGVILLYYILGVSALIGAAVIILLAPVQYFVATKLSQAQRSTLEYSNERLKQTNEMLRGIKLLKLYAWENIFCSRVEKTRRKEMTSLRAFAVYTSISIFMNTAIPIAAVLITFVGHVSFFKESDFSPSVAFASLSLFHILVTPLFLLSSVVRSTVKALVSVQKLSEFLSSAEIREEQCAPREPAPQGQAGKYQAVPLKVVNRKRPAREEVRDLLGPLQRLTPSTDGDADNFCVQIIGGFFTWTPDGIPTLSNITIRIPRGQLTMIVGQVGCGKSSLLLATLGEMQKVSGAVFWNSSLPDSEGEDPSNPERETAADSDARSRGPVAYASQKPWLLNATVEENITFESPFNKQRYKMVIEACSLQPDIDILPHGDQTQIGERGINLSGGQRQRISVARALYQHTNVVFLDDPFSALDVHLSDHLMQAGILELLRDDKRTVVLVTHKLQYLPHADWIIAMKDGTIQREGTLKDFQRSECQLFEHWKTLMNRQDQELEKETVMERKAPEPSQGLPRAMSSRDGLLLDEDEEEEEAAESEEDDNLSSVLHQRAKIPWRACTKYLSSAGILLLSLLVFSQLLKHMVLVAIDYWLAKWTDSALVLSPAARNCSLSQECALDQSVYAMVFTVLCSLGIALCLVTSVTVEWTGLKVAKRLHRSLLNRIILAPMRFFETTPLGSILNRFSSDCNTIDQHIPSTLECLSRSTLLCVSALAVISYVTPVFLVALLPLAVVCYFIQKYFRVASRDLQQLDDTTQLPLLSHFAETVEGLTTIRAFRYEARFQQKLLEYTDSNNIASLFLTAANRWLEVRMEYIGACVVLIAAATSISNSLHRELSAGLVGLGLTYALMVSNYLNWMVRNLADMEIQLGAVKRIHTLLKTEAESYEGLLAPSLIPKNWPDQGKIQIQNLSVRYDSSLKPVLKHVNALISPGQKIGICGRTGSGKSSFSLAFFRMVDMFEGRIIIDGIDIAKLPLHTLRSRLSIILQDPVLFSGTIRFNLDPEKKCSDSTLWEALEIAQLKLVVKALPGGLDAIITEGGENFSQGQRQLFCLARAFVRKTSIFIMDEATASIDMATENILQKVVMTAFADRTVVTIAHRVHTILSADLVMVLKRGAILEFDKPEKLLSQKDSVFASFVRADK
T1 sequence (Q9ESQ5 whole entry partner): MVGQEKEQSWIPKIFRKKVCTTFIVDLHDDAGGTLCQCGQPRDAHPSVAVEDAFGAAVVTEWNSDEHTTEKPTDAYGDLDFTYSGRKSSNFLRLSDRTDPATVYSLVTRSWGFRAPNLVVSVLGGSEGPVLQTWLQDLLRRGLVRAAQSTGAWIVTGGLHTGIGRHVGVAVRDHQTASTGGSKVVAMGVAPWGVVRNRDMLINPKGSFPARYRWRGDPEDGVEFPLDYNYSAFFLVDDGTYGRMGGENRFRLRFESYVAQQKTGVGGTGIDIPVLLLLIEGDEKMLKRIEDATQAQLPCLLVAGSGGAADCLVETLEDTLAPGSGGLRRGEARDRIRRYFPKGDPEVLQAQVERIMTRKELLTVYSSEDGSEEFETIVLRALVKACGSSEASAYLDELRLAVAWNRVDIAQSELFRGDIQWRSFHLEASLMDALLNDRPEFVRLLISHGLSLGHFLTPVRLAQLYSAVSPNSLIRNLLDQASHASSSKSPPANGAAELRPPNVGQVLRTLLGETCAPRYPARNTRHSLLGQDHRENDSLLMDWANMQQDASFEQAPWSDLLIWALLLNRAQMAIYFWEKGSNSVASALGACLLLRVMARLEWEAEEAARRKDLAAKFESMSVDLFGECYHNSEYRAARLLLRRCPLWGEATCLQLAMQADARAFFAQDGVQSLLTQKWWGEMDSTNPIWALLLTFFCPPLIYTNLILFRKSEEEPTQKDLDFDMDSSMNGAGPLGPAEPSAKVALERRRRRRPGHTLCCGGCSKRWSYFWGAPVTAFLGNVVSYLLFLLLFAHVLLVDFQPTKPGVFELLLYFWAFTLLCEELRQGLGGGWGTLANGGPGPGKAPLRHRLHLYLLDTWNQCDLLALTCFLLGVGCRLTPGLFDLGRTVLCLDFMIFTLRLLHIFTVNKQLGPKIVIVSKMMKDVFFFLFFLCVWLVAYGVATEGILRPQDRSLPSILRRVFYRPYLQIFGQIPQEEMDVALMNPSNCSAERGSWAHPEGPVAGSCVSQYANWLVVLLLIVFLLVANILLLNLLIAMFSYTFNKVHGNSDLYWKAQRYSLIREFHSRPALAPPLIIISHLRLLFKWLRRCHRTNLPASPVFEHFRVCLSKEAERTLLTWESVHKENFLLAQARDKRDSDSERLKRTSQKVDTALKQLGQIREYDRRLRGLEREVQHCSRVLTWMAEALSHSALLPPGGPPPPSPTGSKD

NCCa-ATP channel [4] = target: T1, NCCa-ATP channel; test: Patch clamp of NCCa-ATP channel in freshly isolated native reactive astrocytes; format: cell-based; conditions: for EC50: read-out: [ATP]1 EC50 (um)
From the text: The NCCa-ATP channel is a 35 pS cation channel that conducts all inorganic monovalent cations (Na^+, K^+, Cs^+, Li^+, Rb^+), but is impermeable to Ca^2+ and Mg^2+ (Chen and Simard, 2001). […] Studies using a variety of organic monovalent cations indicate that the channel has an equivalent pore radius of 0.41 nm.
The NCCa-ATP channel is believed to be composed of pore-forming and regulatory subunits. The regulatory subunit is sulfonylurea receptor 1 (SUR1), the same as that for KATP channels in pancreatic β cells (Chen et al., 2003), and so NCCa-ATP and pancreatic KATP channels have pharmacological profiles that resemble each other closely. […] Knockdown of SUR1 using antisense-oligodeoxynucleotide reduces SUR1 expression (Simard et al., 2006) and prevents expression of functional NCCa-ATP channels.

[5] = target: T2, SUR1-regulated NCCa-ATP channel (Homo sapiens, UniProt Q09428); test: Patch clamp of cultured human aortic endothelial cells after hypoxia; format: cell-based
T2 construct: cultured endothelial cells from human aorta (ScienCell, SanDiego CA) were also studied; host or cells: human aortic endothelial cells (HAEC) cultured under hypoxia (1% O2)
From the text: In addition to studying freshly isolated capillary endothelial cells from rat spinal cord, cultured endothelial cells from human aorta (ScienCell, SanDiego CA) were also studied. The purpose with these studies was to investigate whether hypoxia/ischemia can lead to up-regulation of the SUR1-regulated NCCa-ATP channels in endothelial cells, a finding that was previously reported for astrocytes and neurons (Chen et al., 2003; Simard et al., 2006), but not endothelial cells. Endothelial cells were cultured under normoxic (room air) and hypoxic (1% 02) conditions. Cells cultured under both conditions were immunolabeled for SUR1, the regulatory subunit of both KATP and NCCa-ATP channels.
The diazoxide-induced current (difference current in FIG. 15A) reversed at E(K) consistent with an SUR1-regulated KATP channel current.
Inside-out patches from cells maintained under hypoxic conditions were also studied. […]
Patch clamp of endothelial cells was performed using a nystatin-perforated patch technique, to maintain the metabolic integrity of the cells. The identity of the activated channel can be assessed by measurement of the “reversal potential”, the potential at which an ion channel current reverses from inward to outward. […]

[6] = target: receptor-mediated Ca2+ entry; conditions: cited from earlier work
global cerebral ischemia = conditions: in vivo; cited from earlier work
[7] = test system: freshly isolated reactive astrocytes; conditions: cited from earlier work; for Cell blebbing: glibenclamide with 1 mM Na azide, diazoxide alone without ATP depletion
[8] = test system: isolated retina of chick embryo; conditions: glucose/oxygen deprivation or excitotoxic conditions; cited from earlier work
recombinant MMP = test: Zymography of gelatinase activity of recombinant MMP; format: biochemical; conditions: glibenclamide 10 μM; MMP-inhibitor II 300 nM
From the text: In stroke, hemorrhagic conversion has been attributed to activation of matrix metalloproteinases (MMP) (Gidday et al., 2005; Justicia et al., 2003; Lorenzl et al., 2003; Romanic et al., 1998). […] This was studied directly using zymography of recombinant MMPs.

[9] = test system: large MCA stroke associated with malignant cerebral edema; conditions: cited from earlier work
[10] = test system: freshly isolated reactive astrocytes; conditions: 1 mM Na azide; 1 μM glibenclamide; cited from earlier work
NCCa-ATP channels = test: Nystatin-perforated patch clamp of hypoxic endothelial cells, current activated by Na+ azide; format: cell-based, human; conditions: 1 μM; hypoxic conditions
Protocol: Patch clamp of endothelial cells was performed using a nystatin-perforated patch technique, to maintain the metabolic integrity of the cells. The identity of the activated channel can be assessed by measurement of the “reversal potential”, the potential at which an ion channel current reverses from inward to outward. With physiologically relevant concentrations of ions intracellularly and extracellularly (high potassium inside, high sodium outside), the reversal potential can unambiguously distinguish between a K^+ channel current such as KATP, which reverses negative to −50 mV and a non-selective cation channel current such as NCCa-ATP, which reverses near 0 mV.
Channel activation was also studied upon induction by Na^+ azide, a […] that depletes cellular ATP (Chen and Simard, 2001).

[11] = test system: stroke induced by thromboemboli; conditions: constant infusion 75-200 ng/h; cited from earlier work
[12] = test system: cervical spinal cord contusion injury; test: Rat cervical hemi-cord contusion spinal cord injury model; format: in vivo
From the text: The cervical contusion SCI model that is used is that of Soblosky et al. (2001). Adult female Long-Evans rats are anesthetized (Ketamine and Xylazine) and a hemilaminectomy is made at C4-5 to expose the dura. A hemi-cervical spinal cord contusion is created using a blunt force impactor (see details below “The model of contusion SCI”).
To generate the injury for the data shown here, the impactor was activated using a 10-gm weight dropped from 2.5 cm.
Animals were sacrificed at ¾ hr and 24 hr after contusion SCI (n=5 rats per group), they were perfused with heparinized saline to remove intravascular blood, and 5-mm segments of cord encompassing the lesion were homogenized and processed using Drabkin's reagent to convert hemoglobin to cyanomethemoglobin for spectrophotometric measurements (Choudhri et al., 1997).
Animals underwent the same SCI as above, and immediately after, were implanted with mini-osmotic pumps (Alzet 2002, 14 day pump, […]; Durect Corporation, Cupertino, CA) that delivered either saline or drug s.q.
Spinal cords were examined 24 hr after SCI. […] In other rats, […] sections of cord were harvested that encompassed the contusion site and we quantified the amount of blood present in tissues after removal of intravascular blood by perfusion at time of euthanasia (n=5-6 rats per group).
As previously described (Gensel et al., 2006), rats were placed in a glass cylinder to which they had not been previously exposed. A peanut butter treat was placed 8 inches above the floor, and the number of seconds spent with both front paws elevated above shoulder-height was counted during a 3-min period of observation.

transient focal ischemia = conditions: pre- or post-ischemic administration; cited from earlier work
permanent MCAO = conditions: given 30 min after initiation of permanent MCAO; cited from earlier work
[13] = after 6 h of vascular occlusion
[14] = Membrane Preparation derived from freshly isolated native reactive astrocytes

COc1cc2c(cc1OC)C(C(C(=O)N(CCc1ccc(OC)c(OC)c1OC)CCc1ccc(OC)c(OC)c1OC)c1ccccc1)=NCC2 (racemic) [pinokalant, (R,S)-(3,4-dihydro-6,7-dimethoxy-isoquinoline-1-yl)-2-phenyl-N,N-di[2-(2,3,4-trimethoxyphenyl)ethyl]-acetamide]
Blood flow [1, 13]: significantly higher | Reduction of the volume of ATP-depleted and morphologically injured tissue (infarct core) [1, 13]: 60-70% | Decrease of ADC lesion volume ([1]; initial 6 h of vascular occlusion, untreated increased by approximately 50%): approximately 20% | DWI-derived infarct volume ([2]; 4 h after MCAO): significantly smaller | Neurological scores ([2]; at 24 h): significantly better | TTC-derived infarct volume ([2]; postmortem): significantly attenuated

Nc1ncnc2c1ncn2[C@@H]1O[C@H](COP(=O)(O)OP(=O)(O)O)[C@@H](O)[C@H]1O [ADP]
Effect on channel opening (NCCa-ATP channel [3]): unaffected | Effect on channel (NCCa-ATP channel [4]; [14]): No channel effect | Effect on channel (NCCa-ATP channel [4]; Reactive Astrocytes): No channel effect

Nc1ncnc2c1ncn2[C@@H]1O[C@H](COP(=O)(O)O)[C@@H](O)[C@H]1O [AMP]
Effect on channel opening (NCCa-ATP channel [3]): unaffected | Effect on channel (NCCa-ATP channel [4]; [14]): No channel effect | Effect on channel (NCCa-ATP channel [4]; Reactive Astrocytes): No channel effect

Nc1ncnc2c1ncn2[C@@H]1O[C@H](COP(=O)(O)OP(=O)(O)OP(=O)(O)O)[C@@H](O)[C@H]1O [ATP]
EC50 (NCCa-ATP channel [3]; read-out: Block of channel opening, EC50): 790 nM | Single channel openings in inside-out patches ([5]; 20 μM in the bath, hypoxic cells, Cs+ as cation): inhibited | EC50 (NCCa-ATP channel [4]; [14]): 790 nM | EC50 (NCCa-ATP channel [4]; Reactive Astrocytes): 790 nM

COc1ccc(CCCOC(Cn2ccnc2)c2ccc(OC)cc2)cc1 (stereo not drawn) [SKF 96365, 1-(beta-[3-(4-methoxy-phenyl)propoxy]-4-methoxyphenethyl)-1H-imidazole hydrochloride]
IC50 [6]: ~10000 nM

COc1cc(CNC(=O)CCCC/C=C/C(C)C)ccc1O [capsaicin]
Electroencephalographic changes, hyperlocomotion and memory impairment induced by global ischemia (global cerebral ischemia): antagonize

Oc1cc2c(cc1O)CN(C(=S)NCCc1ccc(Cl)cc1)CCC2 [capsazepine]
Effect on rimonabant-induced and capsaicin-induced neuroprotective effects (global cerebral ischemia): reversed

CC1=NS(=O)(=O)c2cc(Cl)ccc2N1 [diazoxide]
Cell blebbing [7]: reproduced | Block or opening of the NCCa-ATP channel (NCCa-ATP channel [3]): opened | Channel opening in the presence of ATP (NCCa-ATP channel [3]; in the presence of ATP): increased | Membrane current, reversing near 0 mV ([5]; cells maintained under hypoxic conditions): significantly increased; also recorded: activated an ohmic current

O=C(O)c1ccccc1Nc1cccc(C(F)(F)F)c1 [flufenamic acid]
Protection of retina against ischemic or excitotoxic insult [8]: protected

COc1ccc(Cl)cc1C(=O)NCCc1ccc(S(=O)(=O)NC(=O)NC2CCCCC2)cc1 [glibenclamide]
Membrane depolarization ([7]; cells exposed to Na+ azide to deplete ATP): blocks | Cell blebbing [7]: significantly reduces; also recorded: completely prevented; also recorded: blocked | Gelatinase activity (recombinant MMP): the same | Reduction of mortality ([9]; constant infusion 75-200 ng/h): by half | 7-day mortality ([9]; control rats 68%, n=29 in each group): 28% | Reduction of cerebral edema / ionic edema (excess water) ([9]; low-dose, post-ischemic): reduced by half | Necrotic cell death induced by Na azide [10]: significantly reduced; also recorded: significant reduced | Ohmic current activated by Na+ azide-induced ATP depletion (NCCa-ATP channels): blocked | Reduction of lesion volume / stroke size [11]: reduced by half | Hemorrhage at the contusion site ([12]; 24 hr after SCI, 75 ng/hr s.q.): significantly reduced; also recorded: less prominent | Blood in 6-mm cord segment encompassing the contusion ([12]; 24 hr after SCI, 75 ng/hr s.q., vehicle 1.9±0.02): 0.9 ± 0.2 µL | Neurological function (rearing behavior) ([12]; 24 hr after injury, 3-min observation): significant neurological functional improvement; also recorded: significantly better; also recorded: improves neurological function

Cc1ccc(Cl)c(Nc2ccccc2C(=O)O)c1Cl [meclofenamic acid]
Protection of retina against ischemic or excitotoxic insult [8]: protected

Cc1cccc(Nc2ccccc2C(=O)O)c1C [mefenamic acid]
Protection of retina against ischemic or excitotoxic insult [8]: protected | Neuroprotection (necrosis in cortex and subcortical structures) (transient focal ischemia): no neuroprotection

CCOc1cc(CC(=O)N[C@@H](CC(C)C)c2ccccc2N2CCCCC2)ccc1C(=O)O [repaglinide]
Block or opening of the NCCa-ATP channel (NCCa-ATP channel [3]): blocked

Cc1c(C(=O)NN2CCCCC2)nn(-c2ccc(Cl)cc2Cl)c1-c1ccc(Cl)cc1 [rimonabant]
Electroencephalographic changes, hyperlocomotion and memory impairment induced by global ischemia (global cerebral ischemia): antagonize | Reduction of infarct volume (permanent MCAO): ~40%
